These results are taken from ChEMBL document CHEMBL1130659, “Macrolide biosynthesis: a single cytochrome P450, PicK, is responsible for the hydroxylations that generate methymycin, neomethymycin, and picromycin in Streptomyces venezuelae” (Bioorg Med Chem Lett, 1998).

Format in all cases: ADME
The nature of series [1]: Kinetic behavior of the enzyme (PicK/6-His) was evaluated.
Series [2] can be described thus: Michaelis behavior of the enzyme (PicK/6-His).
Series [3] in a line: Catalytic constant expressed as Kinetic behavior of enzyme (PicK/6-His).
Series [4] can be described thus: Ratio of kcat to Km was evaluated.

Consider `CC[C@H]1OC(=O)[C@H](C)C(=O)[C@H](C)[C@@H](O[C@@H]2O[C@H](C)C[C@H](N(C)C)[C@H]2O)[C@@H](C)C[C@@H](C)C(=O)/C=C/[C@H]1C`, for which the Km in series [1] stood at 440 µM; in series [2] it was 88 µM. The same molecule gave a k cat in series [3] of 2 s⁻¹. Besides, in series [4], the kcat/Km is 23000 M⁻¹ s⁻¹.
As for `CC[C@H]1OC(=O)[C@H](C)[C@@H](O[C@@H]2O[C@H](C)C[C@H](N(C)C)[C@H]2O)[C@@H](C)C[C@@H](C)C(=O)/C=C/[C@H]1C`, the figures for the Km in series [1] and in series [2] were 2200 µM and 130 µM, respectively. In series [3], this molecule showed a k cat of 1.1 s⁻¹. In series [4], the kcat/Km is 8000 M⁻¹ s⁻¹.

One may read the Km as the substrate concentration at which the rate is half of its maximum. As usually defined, the kcat/Km is the second-order rate constant that governs catalysis at low substrate concentration.
